# Data published in patent US8455553B2, “Methods and compositions for prevention and treatment of inflammatory disease, autoimmune disease and transplant rejection” (The Regents of the University of California, priority 2001, dated 2013).
# “Also recorded” adds a separate entry of the source. Read-outs that look alike come from different tables or passages of the source.
# Key:
# tyrosine kinase ZAP70 = biological target: T1, tyrosine kinase ZAP70 (Homo sapiens, UniProt P43403); conditions: Geahlen, et al. (1989); cited from earlier work
# T1 sequence (P43403 1-619): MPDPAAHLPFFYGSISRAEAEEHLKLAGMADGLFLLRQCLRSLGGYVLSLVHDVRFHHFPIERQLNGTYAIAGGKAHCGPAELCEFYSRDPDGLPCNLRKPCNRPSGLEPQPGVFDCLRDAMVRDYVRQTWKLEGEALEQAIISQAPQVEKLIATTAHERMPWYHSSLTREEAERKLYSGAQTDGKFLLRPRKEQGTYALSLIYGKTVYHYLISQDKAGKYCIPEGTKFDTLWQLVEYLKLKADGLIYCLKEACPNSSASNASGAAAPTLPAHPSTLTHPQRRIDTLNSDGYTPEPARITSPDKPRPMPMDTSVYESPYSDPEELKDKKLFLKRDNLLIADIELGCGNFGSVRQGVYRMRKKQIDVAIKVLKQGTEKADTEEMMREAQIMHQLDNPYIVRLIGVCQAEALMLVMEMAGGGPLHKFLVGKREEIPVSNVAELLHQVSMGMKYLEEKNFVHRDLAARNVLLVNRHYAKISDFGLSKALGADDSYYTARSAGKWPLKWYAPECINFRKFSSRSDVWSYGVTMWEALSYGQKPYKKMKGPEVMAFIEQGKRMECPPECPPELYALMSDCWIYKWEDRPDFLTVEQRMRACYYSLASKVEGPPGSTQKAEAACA
# [1] = cited from earlier work
# [2] = tested on: LPS induced gene expression (RANTES, MCP-1, ISG54, TNF); assay: LPS induced gene expression (interferon regulated genes) in vitro; assay type: cell-based
# Ovalbumin immunized mice = assay: Ovalbumin asthma model, cell infiltration in bronchioalveolar lavage fluid; assay type: in vivo; conditions: 1 mg i.p. daily, FIG. 11
# Description: Mice (8 animals) were immunized by intraperitoneal (i.p.) injection of Ovalbumin after 2 weeks, The OA solution was administered into the nasal passage by inhalation without (4) or with (4) concurrent piceatannol regimen (1 mg i.p. daily).
# IL-6 = assay: Production of IL-6 in response to LPS in vitro; assay type: cell-based
# [3] = tested on: mice that had received piceatannol alone; assay: Toxicity of piceatannol alone in mice; assay type: in vivo; conditions: for Lethality rate: no LPS
# Description: (§1) Endotoxic shock was induced by intraperitoneal injection of 1 μg LPS into laboratory mice in the presence of 20 mg D-galactosamine (D-Gal). This regimen leads to a 90-100% lethality rate by 9-12 hours post injection. The following data in Tables 1-3 reports the mortality rate over 28 days of observation. In one experiment, animals were treated intra peritoneally with piceatannol.
# [4] = tested on: endotoxic shock induced by intraperitoneal injection of 1 μg LPS in the presence of 20 mg D-galactosamine in laboratory mice; assay: Endotoxic shock, low dose model (1 μg LPS + D-Gal), lethality; assay type: in vivo; conditions: for Mortality, percent dead: Table 3, Low Dose Model (1 μg LPS + D-Gal); for Mortality caused by septic shock: intraperitoneal administration prior to LPS challenge (Table 3)
# Description: Endotoxic shock was induced by intraperitoneal injection of 1 μg LPS into laboratory mice in the presence of 20 mg D-galactosamine (D-Gal). This regimen leads to a 90-100% lethality rate by 9-12 hours post injection. The following data in Tables 1-3 reports the mortality rate over 28 days of observation. In one experiment, animals were treated intra peritoneally with piceatannol. […]
# TNFα = assay: Production of TNFα in response to LPS in vitro; assay type: cell-based
# tyrosine kinase Tyk2 = tyrosine kinase Tyk2 (Homo sapiens, UniProt P29597); conditions: Su, et al. (2000); cited from earlier work
# [5] = tested on: MBP-TCR+/STAT1- mice developing spontaneous paralysis; assay: Experimental autoimmune encephalomyelitis (EAE), model for multiple sclerosis; assay type: in vivo
# Description: Experimental autoimmune encephalomyelitis (EAE) represents a murine model for multiple sclerosis, a TH1 cells mediated demyelinating autoimmune disorder. In this modes, STAT1-deficient mice (Jackson Laboratories, Maine, USA) were crossed with mice carrying a tansgenic T cell receptor against Myelin Basis Protein (MBP) [Lafaille et al. (1994) Cell 78(3):399-408]. The resulting MBP-TCR^+/STAT1^− mice, when on an H2b/u or H2u/u background develop spontaneous paralysis. Typically, in this transgenic system, the disease progresses from early signs of hind leg paralysis (level 2) to the moribund stage of lethal paralysis (level 5) within 4-5 days.
# Three mice showing clear signs of hind leg paralysis were injected s.c. with 1 mg piceatannol every 48 hours (FIG. 10). Under this regimen these animals survived for 30 days, at which time piceatannol administration was stopped.
# [6] = tested on: septic shock induced by 1000 μg LPS intraperitoneally in mice; assay: Septic shock, high dose model (1000 μg LPS), lethality; assay type: in vivo; conditions: for Mortality, percent dead: Table 3, High Dose Model (1000 μg LPS), 1000 μM pre, 500 μM SC post every 12; for Mortality caused by septic shock: intraperitoneal administration prior to LPS challenge coupled with subcutaneous administration following LPS challenge (Table 3)
# Description: as §1
# In another experiment, 1 mg of LPS was administered intraperitoneally. Piceatannol or tetramethoxy-piceatannol (TMP) were administered intraperitoneally prior to LPS treatment, with some mice receiving subcutaneous doses of either piceatannol or TMP following LPS administration.
# tyrosine kinase Syk = conditions: Geahlen, et al. (1989); cited from earlier work
# Sequence of tyrosine kinase Tyk2 (P29597 whole entry): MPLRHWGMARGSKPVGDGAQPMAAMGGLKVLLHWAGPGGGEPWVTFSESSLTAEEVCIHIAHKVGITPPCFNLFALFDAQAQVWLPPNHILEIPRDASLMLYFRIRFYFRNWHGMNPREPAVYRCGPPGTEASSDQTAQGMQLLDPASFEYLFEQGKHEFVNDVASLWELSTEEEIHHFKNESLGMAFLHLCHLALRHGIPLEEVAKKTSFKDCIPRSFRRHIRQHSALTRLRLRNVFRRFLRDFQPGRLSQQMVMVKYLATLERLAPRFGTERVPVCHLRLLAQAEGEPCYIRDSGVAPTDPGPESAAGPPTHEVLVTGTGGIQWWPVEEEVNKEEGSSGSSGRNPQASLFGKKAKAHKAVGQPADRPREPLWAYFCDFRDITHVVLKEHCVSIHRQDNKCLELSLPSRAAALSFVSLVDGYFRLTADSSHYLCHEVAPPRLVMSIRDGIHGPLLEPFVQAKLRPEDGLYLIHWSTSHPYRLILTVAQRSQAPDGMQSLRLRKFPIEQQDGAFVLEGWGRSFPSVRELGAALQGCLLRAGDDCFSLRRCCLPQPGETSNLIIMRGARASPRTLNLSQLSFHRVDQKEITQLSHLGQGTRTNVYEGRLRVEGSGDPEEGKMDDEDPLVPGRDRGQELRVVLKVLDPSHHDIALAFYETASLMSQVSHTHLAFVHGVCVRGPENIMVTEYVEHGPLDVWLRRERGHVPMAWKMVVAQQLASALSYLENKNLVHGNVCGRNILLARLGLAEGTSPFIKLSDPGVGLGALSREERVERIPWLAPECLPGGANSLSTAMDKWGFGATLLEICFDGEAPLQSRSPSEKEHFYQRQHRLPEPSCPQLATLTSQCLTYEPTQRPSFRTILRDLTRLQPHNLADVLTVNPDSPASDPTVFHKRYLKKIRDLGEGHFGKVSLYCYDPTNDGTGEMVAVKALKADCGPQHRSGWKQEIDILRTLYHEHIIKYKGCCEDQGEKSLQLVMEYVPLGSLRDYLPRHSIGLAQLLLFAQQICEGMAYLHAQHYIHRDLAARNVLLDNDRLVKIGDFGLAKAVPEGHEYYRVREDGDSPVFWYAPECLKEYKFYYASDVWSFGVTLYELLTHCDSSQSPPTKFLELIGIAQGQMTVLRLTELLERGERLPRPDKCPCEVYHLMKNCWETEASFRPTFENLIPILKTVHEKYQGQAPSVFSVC
compound,measurement,setting,value
"Oc1cc(O)cc(/C=C/c2ccc(O)c(O)c2)c1 [Piceatannol, 3,3′,4,5′-tetrahydroxy-trans-stilbene]",Inhibition of tyrosine kinase ZAP70,tyrosine kinase ZAP70,inhibitor
same,Water solubility,[1],partially water soluble
same,Water solubility,[1]; listed as piceatannol,water soluble
same,"Concentration that blocks LPS induced gene expression (e.g., RANTES, MCP-1, TNF)",[2],micromolar range
same,"Concentration that blocks LPS induced gene expression (e.g., RANTES, MCP-1, ISG54)",[2]; in vitro,micromolar concentrations; also recorded: micromolar range
same,Eosinophils infiltration into the lungs,Ovalbumin immunized mice,significant reduction
same,Lymphocytes infiltration into the lungs,Ovalbumin immunized mice,significant reduction
same,Production of IL-6 in response to LPS,IL-6,inhibited
same,Lethality rate,"[3]; Table 1, piceatannol 1000 μg intraperitoneal, dead/total, 28 days of observation",0/8
same,Lethality rate,"[3]; Table 2, piceatannol 1000 μg (ip)",0/6
same,Lethality rate,"[3]; Table 2, piceatannol 1000 μg (iv)",0/2
same,Toxicity in vivo (overall statement),[3]; data of Tables 1 and 2 / Examples 1 and 3,very low toxicity; also recorded: low toxicity
same,Acute or chronic toxicity,"[3]; healthy animals, repeated high dose (1 mg) intraperitoneal injections",did not detect any acute or chronic toxicity
same,Acute toxicity (within 2 hours post-injection),"[3]; piceatannol alone, up to 1 mg intraperitoneal or intravenously","no signs of acute (i.e., within 2 hours post-injection) toxicity"
same,Delayed toxicity,"[3]; with or without subsequent LPS injection, monitored for several weeks",no signs of delayed toxicity
same,Lethality rate,"[4]; Table 1, LPS 1 μg (+D-Gal) ip, piceatannol 250 μg ip, 28 days of observation",5/12
same,Lethality rate,"[4]; Table 1, LPS 1 μg (+D-Gal) ip, piceatannol 500 μg ip, 28 days of observation",0/8
same,Lethality rate,"[4]; Table 2, LPS + D-Gal 1 μg ip, piceatannol 250 μg (ip)",3/8
same,Lethality rate,"[4]; Table 2, LPS + D-Gal 1 μg ip, piceatannol 250 μg (iv) + 250 μg (ip)",0/6
same,Lethality rate,"[4]; Table 2, LPS + D-Gal 1 μg ip, piceatannol 400 μg (ip)",0/2
same,"Mortality, percent dead",[4]; 400 μM ip prior to LPS,48%
same,"Mortality, percent dead",[4]; 1000 μM ip prior to LPS,35%
same,Animals rescued,"[4]; administration several hours after LPS challenge, animal model of sepsis",approximately 50%
same,Protection against endotoxic shock,[4]; combined intravenous and intraperitoneal administration,up to 100%
same,Mortality caused by septic shock,[4],significantly reducing mortality
same,Death associated with endotoxic shock,[4]; single administration by either the intravenous or intraperitoneal route,significantly reduced death
same,Protection against endotoxic shock,"[4]; single administration, animal model of sepsis",up to 100%
same,Production of TNFα in response to LPS,TNFα,inhibited
same,Inhibition of tyrosine kinase Tyk2,tyrosine kinase Tyk2,potent inhibitor
same,Time to complete paralysis and death after administration was stopped,[5]; after 30 days of 1 mg s.c. every 48 hours,Ten
same,Disease progression,"[5]; for the duration of administration, 1 mg s.c. every 48 hours",completely halted disease progression
same,Survival under treatment,"[5]; three mice with hind leg paralysis, 1 mg s.c. every 48 hours, administration stopped at that time",30 days
same,Lethality rate,"[6]; Table 1, LPS 1000 μg ip, piceatannol 500 → 1000 μg ip, 28 days of observation",3/8
same,"Mortality, percent dead",[6],50%
same,Mortality caused by septic shock,[6],significantly reduced mortality
same,Inhibition of tyrosine kinase Syk,tyrosine kinase Syk,inhibitor
"Oc1ccc(/C=C/c2cc(O)cc(O)c2)cc1 [resveratrol, trihydroxy-stilbene]",Water solubility,[1],water soluble
"COc1cc(/C=C/c2ccc(OC)c(OC)c2)cc(OC)c1 [TMP, tetramethoxy-piceatannol]","Inhibition of LPS-mediated ISG induction, compared with piceatannol",[2]; in vitro,as effective as piceatannol
same,"Mortality, percent dead",[4]; 1000-1250 μM ip prior to LPS,38%
same,Mortality caused by septic shock,[4],significantly reducing mortality
same,"Mortality, percent dead",[6],44%
same,Mortality caused by septic shock,[6],significantly reduced mortality
